{"source": "patent US20210009673A1", "about": "“METHODS FOR REGULATING BREAST CANCERS” (priority 2018, published 2021)", "key": {"β-catenin [1]": {"system": "β-catenin", "assay": "tyrosine phosphorylation of β-catenin in PTN-stimulated U87MG cells", "format": "cell-based, human", "conditions": "U87MG cells preincubated with inhibitor; 50 ng PTN/ml", "experimental": "FIG. 1: FIG. 1 illustrates in (A) PTN stimulation of tyrosine phosphorylation of β-catenin in cells that express RPTPβ/ζ and ALK. COS7 cells transiently expressing ALK and RPTPβ/ζ were stimulated with 10 ng PTN/ml. Cell lysates were prepared and used to immunoprecipitate β-catenin. The immunoprecipitates were analyzed in Western blots probed with anti-phosphotyrosine antibodies. Lane 1, cells transfected with ALK that were not stimulated with PTN. Lane 2, cells transfected with ALK stimulated with PTN. Lane 3, cells transfected with empty vector not stimulated with PTN. Lane 4, cells transfected with empty vector stimulated with PTN. […] The immunoprecipitates were analyzed in Western blots probed with anti-phosphotyrosine antibodies. […] Cell lysates were used to immunoprecipitate β-catenin and the immunoprecipitates were analyzed in Western blots probed with anti-phospho-tyrosine antibodies and reprobed with anti-β-catenin antibodies. […] MCF-7 cells that stably express EGFR/RPTPβ/ζ not transfected with ALK were analyzed as above. […] Lysates of MCF-7 cells and lysates of MCF-7 cells stimulated with EGF were used to immunoprecipitate β-catenin and the immunoprecipitates were analyzed in Western blots probed with anti-phospho-tyrosine antibodies and separately with anti-β-catenin antibodies. […]"}, "Akt": {"system": "Akt", "assay": "phosphorylation of Akt in PTN-stimulated HUVS cells", "format": "cell-based, human", "conditions": "cells preincubated with EGFR inhibitor; PTN 2-20 minutes", "experimental": "FIG. 11: FIG. 11 illustrates: human umbilical vein stromal cells not stimulated or stimulated with 50 ng/ml of PTN for 2, 5, 10 or 20 minutes were used to prepare cell lysates that were analyzed in Western blots probed with anti-phospho threonine 308 Akt (panel A), anti-phospho serine 473 Akt (panel B), anti-phospho-serine 9 GSK3β (panel C), anti-phospho-serine 33, 37 and […] β-catenin (panel D) or anti-actin antibodies (panel E). Akt was immunoprecipitated from those lysates using anti-Akt antibodies, incubated with a fusion peptide containing the 20 N-terminal amino acids of GSK3β and analyzed in Western-blots probed using anti-phospho-serine 9 GSK3β antibodies (panel F).\nTo pursue this pathway of nuclear import of β-catenin, HUVS cells were stimulated with PTN (50 ng/ml), lysed, and analyzed in Western blots probed with anti-phosphothreonine 308 Akt or anti-phosphoserine 473 Akt antibodies (FIG. 11, panel A and B). […]\nThe association of adaptor proteins that associate with specific phosphorylated sites in activated EGFR are responsible for the activation of phosphatidyl-inositol 3-kinase (PI3K). […] The cells were stimulated with PTN for 2, 5, 10, and 20 minutes, cell lysates were prepared, and the lysates were analyzed in Western blots probed with anti-phospho-Akt (Ser473), anti-phospho-GSKβ (Ser9), and anti-phospho-β-catenin (Thr42) antibodies. […]"}, "[2]": {"system": "MDA-MB-231 cell xenograft", "assay": "MDA-MB-231 xenograft growth in flanks of nude mice", "format": "in vivo", "conditions": "50 mg/kg daily oral gavage", "experimental": "FIG. 22: FIG. 22 illustrates: in (A), the c-met/ALK dual inhibitor PF2341066 blocks growth of MDA-MB-231 cells. MDA-MB-231 breast cancer cells were treated with 1 nM, 10 nM, 100 nM, and 1 μM PF2341066, the number of viable cells was counted for ten days, and represented as average with standard deviation. In (B), The c-met/ALK dual inhibitor PF2341066 blocks growth of T47D cells. T47D breast cancer cells were treated with 1 nM, 10 nM, 100 nM, and 1 μM PF2341066, the number of viable cells was counted for ten days, and represented as average with standard deviation. In (C), The ALK inhibitor PF2341066 delays MDA-MB-231 cell growth as tumors in flanks of nude mice. MDA-MB-231 cells were injected in flanks of nude mice. The mice were divided in two groups, which were given 50 mg/kg PF2341066 daily by oral gavage or an equal volume of DMSO as control. Tumor size was measured daily and is represented as average tumor burden in each group. […]\nMale athymic nude mice (8 weeks old, Cby.Cg-Foxn1nu) were used. […] The sites of injection were observed daily for tumor growth beginning 1 day after injection and tumor length (L) and width (W) were measured, and tumor volume was estimate using the formula (LXW2)/2."}, "T47D cells": {"system": "T47D cells", "assay": "growth of T47D breast cancer cells in culture (viable cell count)", "format": "cell-based, human", "experimental": "(§1) FIG. 22: FIG. 22 illustrates: in (A), the c-met/ALK dual inhibitor PF2341066 blocks growth of MDA-MB-231 cells. MDA-MB-231 breast cancer cells were treated with 1 nM, 10 nM, 100 nM, and 1 μM PF2341066, the number of viable cells was counted for ten days, and represented as average with standard deviation. In (B), The c-met/ALK dual inhibitor PF2341066 blocks growth of T47D cells. T47D breast cancer cells were treated with 1 nM, 10 nM, 100 nM, and 1 μM PF2341066, the number of viable cells was counted for ten days, and represented as average with standard deviation. In (C), The ALK inhibitor PF2341066 delays MDA-MB-231 cell growth as tumors in flanks of nude mice. MDA-MB-231 cells were injected in flanks of nude mice. The mice were divided in two groups, which were given 50 mg/kg PF2341066 daily by oral gavage or an equal volume of DMSO as control. Tumor size was measured daily and is represented as average tumor burden in each group.\n(§2) The MDA-MB-231 (FIG. 22A) and T47D (FIG. 22B) cells were then treated with the ALK inhibitor PF2341066.\n(§3) MDA-MB-231, MCF-7, and T47D cells were obtained from American Tissue Collection Center (ATCC) and grown in DMEM supplemented with 10% fetal bovine serum (FBS) and 1% penicillin/streptomycin at 37° C. in a 5% CO2 atmosphere. […]"}, "MDA-MB-231 cells": {"system": "MDA-MB-231 cells", "assay": "growth of MDA-MB-231 breast cancer cells in culture (viable cell count)", "format": "cell-based, human", "experimental": "as §1, §2, §3"}, "β-catenin [3]": {"system": "β-catenin", "assay": "tyrosine phosphorylation of β-catenin in MCF-7-EGFR/RPTPβ/ζ cells expressing ALK", "format": "cell-based", "experimental": "FIG. 1: FIG. 1 illustrates in (A) PTN stimulation of tyrosine phosphorylation of β-catenin in cells that express RPTPβ/ζ and ALK. COS7 cells transiently expressing ALK and RPTPβ/ζ were stimulated with 10 ng PTN/ml. Cell lysates were prepared and used to immunoprecipitate β-catenin. The immunoprecipitates were analyzed in Western blots probed with anti-phosphotyrosine antibodies. Lane 1, cells transfected with ALK that were not stimulated with PTN. Lane 2, cells transfected with ALK stimulated with PTN. Lane 3, cells transfected with empty vector not stimulated with PTN. Lane 4, cells transfected with empty vector stimulated with PTN. In (B), ALK and RPTPβ/ζ, but not Src, are necessary for PTN to stimulate tyrosine phosphorylation of activation of β-catenin. U87MG cells and U87MG cells that had been transfected with an shRNA targeting either RPTPβ/ζ or ALK or preincubated with the src inhibitor PP2 were stimulated with 50 ng PTN/ml or not (control) and cell lysates used to immunoprecipitate β-catenin. The immunoprecipitates were analyzed in Western blots probed with anti-phosphotyrosine antibodies. […] Cell lysates were used to immunoprecipitate β-catenin and the immunoprecipitates were analyzed in Western blots probed with anti-phospho-tyrosine antibodies and reprobed with anti-β-catenin antibodies. […] MCF-7 cells that stably express EGFR/RPTPβ/ζ not transfected with ALK were analyzed as above. […] Lysates of MCF-7 cells and lysates of MCF-7 cells stimulated with EGF were used to immunoprecipitate β-catenin and the immunoprecipitates were analyzed in Western blots probed with anti-phospho-tyrosine antibodies and separately with anti-β-catenin antibodies. Lysates of MCF-7 cells transfected with ALK and stimulated with PTN, EGF or pervanadate were immunoprecipitated with anti-β-catenin antibodies and the immunoprecipitates were analyzed in Western blots probed with anti-phospho-tyrosine antibodies and separately with anti-β-catenin antibodies. […]"}, "ALK": {"system": "ALK", "assay": "tyrosine phosphorylation of ALK in MCF-7-EGFR/RPTPβ/ζ cells", "format": "cell-based", "conditions": "EGF at 1 minute and at 5 minutes"}, "β-catenin [4]": {"system": "β-catenin", "assay": "ubiquitination of β-catenin in HUVS cells (Rad23 capture)", "format": "cell-based, human", "conditions": "PTN-stimulated cells pre-incubated with proteasome inhibitor", "experimental": "FIG. 12: FIG. 12 illustrates: human umbilical vein stromal cells not stimulated (lane 1) or stimulated with 50 ng/ml of PTN for 15 (lane 2), or 30 minutes (lane 3) were used to prepare cell lysates that were incubated with Rad23-conjugated agarose beads to pull-down ubiquitinated proteins and analyzed in Western-blots probed with anti-β-catenin antibodies (upper panel) and reprobed with anti-ubiquitin antibodies (lower panel). Cells pre-incubated with LY294002 were stimulated with PTN for 15 minutes (lane 4). Cells pre-incubated with lactacystin were stimulated with PTN for 15 minutes (lane 5).\nHuman umbilical vein stromal cells were lysed in a buffer prepared with 50 mM Tris, pH 7.2, 150 mM NaCl pH 7.5, 1% NP40, 0.25% sodium deoxicholate, Complete EDTA-free Protease Inhibitor Cocktail and 2 mM sodium orthovanadate. […] The beads were washed 4 times with lysis buffer and analyzed using Western blots.\nβ-catenin is rapidly degraded through the ubiquitin proteasome proteolytic pathway, thereby setting steady state levels of β-catenin by balancing its degradation with new synthesis of this key regulatory protein. […] Proteins captured with Rad23 Sepharose were eluted and analyzed in Western blots probed with anti-β-catenin antibodies (FIG. 12, upper panel) and the blots were reprobed with anti-ubiquitin antibodies (FIG. 12, lower panel). […]"}}}
{"compound": "CC(C)(C)n1nc(-c2ccc(Cl)cc2)c2c(N)ncnc21", "note": "[PP2, reference compound]", "values": [{"measurement": "inhibition of PTN-stimulated tyrosine phosphorylation of β-catenin", "setting": "β-catenin [1]", "value": "failed to inhibit"}]}
{"compound": "COc1cc2ncnc(Nc3cccc(Cl)c3)c2cc1OC", "note": "[AG1478, reference compound]", "values": [{"measurement": "PTN-stimulated activation of Akt (phospho-Akt serine 473)", "setting": "Akt", "value": "effectively prevented"}]}
{"compound": "C[C@@H](Oc1cc(-c2cnn(C3CCNCC3)c2)cnc1N)c1c(Cl)ccc(F)c1Cl", "note": "[PF2341066]", "values": [{"measurement": "reduction of tumor burden", "setting": "[2]; day 22", "value": "about 3.5 fold"}, {"measurement": "reduction of tumor burden", "setting": "[2]; end of the experiment", "value": "about 3 fold"}, {"measurement": "proliferation of T47D cells", "setting": "T47D cells; 1 nM-1 μM, ten days", "value": "dose-dependent block in proliferation"}, {"measurement": "reduction of T47D cell growth", "setting": "T47D cells; 1 μM", "value": "about 13 fold"}, {"measurement": "proliferation of MDA-MB-231 cells", "setting": "MDA-MB-231 cells; 1 nM-1 μM, ten days", "value": "dose-dependent block in proliferation"}, {"measurement": "growth of MDA-MB-231 cells", "setting": "MDA-MB-231 cells; 1 μM", "value": "effectively prevented growth"}]}
{"compound": "sodium pervanadate [reference compound]", "values": [{"measurement": "increase in tyrosine phosphorylation of β-catenin", "setting": "β-catenin [3]; stimulated with sodium pervanadate", "value": "about 17 fold"}]}
{"compound": "epidermal growth factor [EGF]", "values": [{"measurement": "tyrosine phosphorylation of ALK", "setting": "ALK", "value": "marked increase"}, {"measurement": "increase in tyrosine phosphorylation of β-catenin", "setting": "β-catenin [3]; 1 minute after stimulation with EGF", "value": "about 11 fold"}, {"measurement": "tyrosine phosphorylation of β-catenin", "setting": "β-catenin [3]; 5 minutes after stimulation with EGF", "value": "Even higher levels"}]}
{"compound": "CC(=O)N[C@@H](CSC(=O)[C@]1([C@@H](O)C(C)C)NC(=O)[C@H](C)[C@@H]1O)C(=O)O", "note": "[lactacystin, reference compound]", "values": [{"measurement": "ubiquitinated β-catenin levels", "setting": "β-catenin [4]", "value": "remained at the level in HUVS cells not stimulated with PTN"}]}
